Test results from US9695168B2 (Incyte Corporation, priority 2014, dated 2017).
pIC50: −log10 of the molar value.

Biological target: LSD1 (Homo sapiens (Human), UniProt O60341)
Experiment: LSD1 Histone Demethylase Biochemical Assay (LANCE LSD1/KDM1A demethylase assay)
Conditions: 1 nM LSD-1 enzyme, 1 hour preincubation at 25° C., 0.4 μM Biotin-labeled Histone H3 peptide substrate
Procedure: LSD1 Histone Demethylase Biochemical Assay
LANCE LSD1/KDM1A demethylase assay-10 μL of 1 nM LSD-1 enzyme (ENZO BML-SE544-0050) in the assay buffer (50 mM Tris, pH 7.5, 0.01% Tween-20, 25 mM NaCl, 5 mM DTT) were preincubated for 1 hour at 25° C. with 0.8 μL compound/DMSO dotted in black 384 well polystyrene plates. […] Reactions were stopped by addition of 10 μL 1× LANCE Detection Buffer (PerkinElmer CR97-100) supplemented with 1.5 nM Eu-anti-unmodified H3K4 Antibody (PerkinElmer TRF0404), and 225 nM LANCE Ultra Streptavidin (PerkinElmer TRF102) along with 0.9 mM Tranylcypromine-HCl (Millipore 616431). After stopping the reactions plates were incubated for 30 minutes and read on a PHERAstar FS plate reader (BMG Labtech).

Compared with Cc1ccc(-c2c(-c3ccc(F)cc3)cc(OC[C@@H]3CCNC3)c3cncn23)cc1 [Example 2, 6-(4-fluorophenyl)-5-(4-methylphenyl)-8-[(3R)-pyrrolidin-3-ylmethoxy]imidazo[1,5-a]pyridine], N#Cc1ccc(-c2cc(OC[C@@H]3CCNC3)c3cncn3c2-c2ccc(Cl)cc2)cc1 [Example 6, 4-{5-(4-chlorophenyl)-8-[(3R)-pyrrolidin-3-ylmethoxy]imidazo[1,5-a]pyridin-6-yl}benzonitrile] is higher in pIC50: 6.00 to 6.30 for the first, 7.00 to 7.30 for the second. The second is the more potent here.

N#Cc1ccc(-c2cc(OC[C@@H]3CCNC3)c3cncn3c2-c2cnn(C3CCC3)c2)cc1 [Example 7, 4-{5-(1-cyclobutyl-1H-pyrazol-4-yl)-8-[(3R)-pyrrolidin-3-ylmethoxy]imidazo[1,5-a]pyridin-6-yl}benzonitrile] and N#Cc1ccc(-c2cc(OC[C@@H]3CCNC3)c3cncn3c2-c2ccc(N3CCOCC3)cc2)cc1 [Example 13, 4-{5-(4-morpholin-4-ylphenyl)-8-[(3R)-pyrrolidin-3-ylmethoxy]imidazo[1,5-a]pyridin-6-yl}benzonitrile] fall in the same range of pIC50: 7.00 to 7.30 for the first, 7.00 to 7.30 for the second.

First: CC(C)(C)OC(=O)N1CC=C(c2c(-c3ccc(C#N)cc3)cc(OC[C@@H]3CCNC3)c3cncn23)CC1 [Example 10, tert-butyl 4-{6-(4-cyanophenyl)-8-[(3R)-pyrrolidin-3-ylmethoxy]imidazo[1,5-a]pyridin-5-yl}-3,6-dihydropyridine-1(2H)-carboxylate]
Second: N#Cc1ccc(-c2cc(OC[C@@H]3CCNC3)c3cncn3c2-c2ccc(CN3CCOCC3)cc2)cc1 [Example 17, 4-{5-[4-(morpholin-4-ylmethyl)phenyl]-8-[(3R)-pyrrolidin-3-ylmethoxy]imidazo[1,5-a]pyridin-6-yl}benzonitrile]
The pIC50 of the first is lower: 6.30 to 7.00 for the first, 7.00 to 7.30 for the second. The second is the more potent here.

First: CN1CCC[C@@H](COc2nc(-c3ccc(C#N)cc3)c(-c3ccc4c(c3)oc(=O)n4C)n3cncc23)C1 [Example 21, 4-(5-(3-methyl-2-oxo-2,3-dihydro-1,3-benzoxazol-6-yl)-8-{[(3R)-1-methylpiperidin-3-yl]methoxy}imidazo[1,5-a]pyrazin-6-yl)benzonitrile]
Second: CN1CCC[C@@H](COc2nc(-c3ccc(C#N)cc3)c(-c3ccc4c(c3)n(C)c(=O)n4C)n3cncc23)C1 [Example 26, 4-(5-(1,3-dimethyl-2-oxo-2,3-dihydro-1H-benzimidazol-5-yl)-8-{[(3R)-1-methylpiperidin-3-yl]methoxy}imidazo[1,5-a]pyrazin-6-yl)benzonitrile]
The pIC50 of the first is higher: 7.00 to 7.30 for the first, 6.30 to 7.00 for the second. The first is the more potent here.

CN1CCC[C@@H](COc2nc(-c3ccc(C#N)cc3)c(-c3ccc4c(c3)CC(=O)N4C)n3cncc23)C1 [Example 22, 4-(5-(1-methyl-2-oxo-2,3-dihydro-1H-indol-5-yl)-8-{[(3R)-1-methylpiperidin-3-yl]methoxy}imidazo[1,5-a]pyrazin-6-yl)benzonitrile] and CN1CCC[C@@H](COc2nc(-c3ccc(C#N)cc3)c(-c3ccc4c(c3)CCC(=O)N4C)n3cncc23)C1 [Example 24, 4-(5-(1-methyl-2-oxo-1,2,3,4-tetrahydroquinolin-6-yl)-8-{[(3R)-1-methylpiperidin-3-yl]methoxy}imidazo[1,5-a]pyrazin-6-yl)benzonitrile] fall in the same range of pIC50: 6.30 to 7.00 for the first, 6.30 to 7.00 for the second.

CN1CCC[C@@H](COc2nc(-c3ccc(C#N)cc3)c(-c3ccc4c(c3)OCC(=O)N4C)n3cncc23)C1 [Example 25, 4-(5-(4-methyl-3-oxo-3,4-dihydro-2H-1,4-benzoxazin-7-yl)-8-{[(3R)-1-methylpiperidin-3-yl]methoxy}imidazo[1,5-a]pyrazin-6-yl)benzonitrile] and CCN1CCC[C@@H](COc2nc(-c3ccc(C#N)cc3)c(-c3ccc4c(c3)CC(=O)N4C)n3cncc23)C1 [Example 110, 4-[8-{[(3R)-1-ethylpiperidin-3-yl]methoxy}-5-(1-methyl-2-oxo-2,3-dihydro-1H-indol-5-yl)imidazo[1,5-a]pyrazin-6-yl]benzonitrile] fall in the same range of pIC50: 7.00 to 7.30 for the first, 7.00 to 7.30 for the second.

First: CN1CCC[C@@H](COc2nc(-c3ccc(C#N)cc3)c(-c3cnc4c(cnn4C)c3)n3cncc23)C1 [Example 27, 4-[8-{[(3R)-1-methylpiperidin-3-yl]methoxy}-5-(1-methyl-1H-pyrazolo[3,4-b]pyridin-5-yl)imidazo[1,5-a]pyrazin-6-yl]benzonitrile]
Second: CC(O)CN1CCC[C@@H](COc2nc(-c3ccc(C#N)cc3)c(-c3cnc4c(cnn4C)c3)n3cncc23)C1 (stereo partly drawn) [Example 39, 4-[8-{[(3R)-1-(2-hydroxypropyl)piperidin-3-yl]methoxy}-5-(1-methyl-1H-pyrazolo[3,4-b]pyridin-5-yl)imidazo[1,5-a]pyrazin-6-yl]benzonitrile]
The pIC50 of the first is higher: 7.00 to 7.30 for the first, 6.30 to 7.00 for the second. The first is the more potent here.

CN1CCC[C@@H](COc2nc(-c3ccc(C#N)cc3)c(-c3ccc4ncccc4c3)n3cncc23)C1 [Example 31, 4-(8-{[(3R)-1-methylpiperidin-3-yl]methoxy}-5-quinolin-6-ylimidazo[1,5-a]pyrazin-6-yl)benzonitrile] and CN1CCC[C@@H](COc2nc(-c3ccc(C#N)cc3)c(-c3ccc4ncsc4c3)n3cncc23)C1 [Example 33, 4-(5-(1,3-benzothiazol-6-yl)-8-{[(3R)-1-methylpiperidin-3-yl]methoxy}imidazo[1,5-a]pyrazin-6-yl)benzonitrile] fall in the same range of pIC50: 7.00 to 7.30 for the first, 7.00 to 7.30 for the second.

Cc1nn(C)c2ccc(-c3c(-c4ccc(C#N)cc4)nc(OC[C@@H]4CCCN(C)C4)c4cncn34)cc12 [Example 32, 4-(5-(1,3-dimethyl-1H-indazol-5-yl)-8-{[(3R)-1-methylpiperidin-3-yl]methoxy}imidazo[1,5-a]pyrazin-6-yl)benzonitrile] and Cc1ncc(-c2c(-c3ccc(C#N)cc3)nc(OC[C@@H]3CCCN(C)C3)c3cncn23)cc1F [Example 88, 4-(5-(5-fluoro-6-methylpyridin-3-yl)-8-{[(3R)-1-methylpiperidin-3-yl]methoxy}imidazo[1,5-a]pyrazin-6-yl)benzonitrile] fall in the same range of pIC50: 7.00 to 7.30 for the first, 7.00 to 7.30 for the second.

First: Cn1ncc2cc(-c3c(-c4ccc(C#N)cc4)nc(OC[C@@H]4CCCN(CC(C)(C)O)C4)c4cncn34)cnc21 [Example 41, 4-[8-{[(3R)-1-(2-hydroxy-2-methylpropyl)piperidin-3-yl]methoxy}-5-(1-methyl-1H-pyrazolo[3,4-b]pyridin-5-yl)imidazo[1,5-a]pyrazin-6-yl]benzonitrile]
Second: COC(=O)N(C)c1ccc(-c2c(-c3ccc(C#N)cc3)nc(OC[C@@H]3CCCN(C)C3)c3cncn23)cn1 [Example 49]
The pIC50 of the first is higher: 7.00 to 7.30 for the first, 6.30 to 7.00 for the second. The first is the more potent here.

COC(=O)N(C)c1ccc(-c2c(-c3ccc(C#N)cc3)nc(OC[C@@H]3CCCN(C)C3)c3cncn23)cc1 [Example 46] and COc1ncc(-c2c(-c3ccc(C#N)cc3)cc(OC[C@@H]3CCCN(C)C3)c3cncn23)cc1N [Example 69, (R)-4-(5-(5-amino-6-methoxypyridin-3-yl)-8-((1-methylpiperidin-3-yl)methoxy)imidazo[1,5-a]pyridin-6-yl)benzonitrile] fall in the same range of pIC50: 7.00 to 7.30 for the first, 7.00 to 7.30 for the second.

CN1C(=O)Cc2cc(-c3c(-c4ccc(C#N)cc4)nc(N4CCC(N(C)C)CC4)c4cncn34)ccc21 [Example 52, 4-[8-[4-(dimethylamino)piperidin-1-yl]-5-(1-methyl-2-oxo-2,3-dihydro-1H-indol-5-yl)imidazo[1,5-a]pyrazin-6-yl]benzonitrile] and CN(C)C1CCN(c2nc(-c3ccc(C#N)cc3)c(-c3cnc4ccoc4c3)n3cncc23)CC1 [Example 104, 4-(8-(4-(dimethylamino)piperidin-1-yl)-5-(furo[3,2-b]pyridin-6-yl)imidazo[1,5-a]pyrazin-6-yl)benzonitrile] fall in the same range of pIC50: 7.00 to 7.30 for the first, 7.00 to 7.30 for the second.

Compared with CN(C)C1CCN(c2nc(-c3ccc(C#N)cc3)c(-c3cnc4cccnc4c3)n3cncc23)CC1 [Example 55, 4-[8-[4-(dimethylamino)piperidin-1-yl]-5-(1,5-naphthyridin-3-yl)imidazo[1,5-a]pyrazin-6-yl]benzonitrile], CN1CCC[C@@H](COc2cc(-c3ccc(C#N)cc3)c(-c3cnc4cccnc4c3)n3cncc23)C1 [Example 59, (R)-4-(8-((1-methylpiperidin-3-yl)methoxy)-5-(1,5-naphthyridin-3-yl)imidazo[1,5-a]pyridin-6-yl)benzonitrile] is lower in pIC50: 7.00 to 7.30 for the first, 6.30 to 7.00 for the second. The first is the more potent here.

CN1CCC[C@@H](COc2cc(-c3ccc(C#N)cc3)c(-c3cnc4ccoc4c3)n3cncc23)C1 [Example 60, (R)-4-(5-(furo[3,2-b]pyridin-6-yl)-8-((1-methylpiperidin-3-yl)methoxy)imidazo[1,5-a]pyridin-6-yl)benzonitrile] and CN1CCC[C@@H](COc2cc(-c3ccc(C#N)cc3)c(-c3cnc4c(c3)CCCO4)n3cncc23)C1 [Example 61, (R)-4-(5-(3,4-dihydro-2H-pyrano[2,3-b]pyridin-6-yl)-8-((1-methylpiperidin-3-yl)methoxy)imidazo[1,5-a]pyridin-6-yl)benzonitrile] fall in the same range of pIC50: 7.00 to 7.30 for the first, 7.00 to 7.30 for the second.

CCN1CCC[C@@H](COc2cc(-c3ccc(C#N)cc3)c(-c3cnc4c(c3)ncn4C)n3cncc23)C1 [Example 66, (R)-4-(8-((1-ethylpiperidin-3-yl)methoxy)-5-(3-methyl-3H-imidazo[4,5-b]pyridin-6-yl)imidazo[1,5-a]pyridin-6-yl)benzonitrile] and CCN1CCC[C@@H](COc2cc(-c3ccc(C#N)cc3)c(-c3cnc4c(c3)CCCO4)n3cncc23)C1 [Example 68, (R)-4-(5-(3,4-dihydro-2H-pyrano[2,3-b]pyridin-6-yl)-8-((1-ethylpiperidin-3-yl)methoxy)imidazo[1,5-a]pyridin-6-yl)benzonitrile] fall in the same range of pIC50: 7.00 to 7.30 for the first, 7.00 to 7.30 for the second.
